The values below come from article PMC9570211, “Analysis of 1-Aroyl-3-[3-chloro-2-methylphenyl] Thiourea Hybrids as Potent Urease Inhibitors: Synthesis, Biochemical Evaluation and Computational Approach” (International Journal of Molecular Sciences, 2022).

The target of assay [1] is T1, jack bean urease (JBU) (Canavalia ensiformis, UniProt P07374). Description: biochemical. How it is done: Hydrophobic and hydrophilic groups were substituted on a phenyl ring in the novel analogues 4a–j that were synthesized in order to check urease inhibition activity.
The function of nitro, chloro, methyl and ethyl substitution in urease inhibitory activity was evaluated. Thiourea, a well-known urease inhibitor, served as the reference compound.
The methodology used in this research for in vitro urease inhibitory activity is the same as reported in our earlier paper.

The nature of assay [2]: DPPH free radical scavenging assay. The note with it: in comparison of standard Vitamin C; up to 100 µg/mL. How it is done: All of the produced 1-aroyl-3-[3-chloro-2-methylphenyl]thiourea compounds were assessed for the ability of DPPH free radical scavenging activity as depicted in Figure 2.
The assay performed in our studies had the same methodology as reported in our previous research articles.
Background: DPPH is a stable violet radical that fades when it is reduced.

Assay [3] addresses T1, jack bean urease (JBU). Description: Kinetic analysis of urease inhibition (Lineweaver–Burk). The assay is classed as biochemical. From the text: Kinetic investigations provided additional evidence for the inhibitory function, in which the potential of the potent derivative 4i to inhibit the substrate at different concentrations in such a way that enzyme concentration remained constant. The kinetic tests of the enzyme gave a series of straight lines by the Lineweaver–Burk plot of 1/V versus 1/[S] in the presence of varying compound concentrations (Figure 3A).
Kinetics performed here as stated previously in our research articles was used for urease activity determination.
Figure 3 Compound 4i inhibiting urease in a Lineweaver–Burk plot (A) Concentrations of 4i were 0.00, 0.001, 0.002 and 0.004 µM (Blue, green, red and black colored lines). […] The lines were constructed using least squares linear regression mean ± SEM.

Where two headings read alike, the source gives them in different places.

T1 sequence (P07374 whole entry, looked up): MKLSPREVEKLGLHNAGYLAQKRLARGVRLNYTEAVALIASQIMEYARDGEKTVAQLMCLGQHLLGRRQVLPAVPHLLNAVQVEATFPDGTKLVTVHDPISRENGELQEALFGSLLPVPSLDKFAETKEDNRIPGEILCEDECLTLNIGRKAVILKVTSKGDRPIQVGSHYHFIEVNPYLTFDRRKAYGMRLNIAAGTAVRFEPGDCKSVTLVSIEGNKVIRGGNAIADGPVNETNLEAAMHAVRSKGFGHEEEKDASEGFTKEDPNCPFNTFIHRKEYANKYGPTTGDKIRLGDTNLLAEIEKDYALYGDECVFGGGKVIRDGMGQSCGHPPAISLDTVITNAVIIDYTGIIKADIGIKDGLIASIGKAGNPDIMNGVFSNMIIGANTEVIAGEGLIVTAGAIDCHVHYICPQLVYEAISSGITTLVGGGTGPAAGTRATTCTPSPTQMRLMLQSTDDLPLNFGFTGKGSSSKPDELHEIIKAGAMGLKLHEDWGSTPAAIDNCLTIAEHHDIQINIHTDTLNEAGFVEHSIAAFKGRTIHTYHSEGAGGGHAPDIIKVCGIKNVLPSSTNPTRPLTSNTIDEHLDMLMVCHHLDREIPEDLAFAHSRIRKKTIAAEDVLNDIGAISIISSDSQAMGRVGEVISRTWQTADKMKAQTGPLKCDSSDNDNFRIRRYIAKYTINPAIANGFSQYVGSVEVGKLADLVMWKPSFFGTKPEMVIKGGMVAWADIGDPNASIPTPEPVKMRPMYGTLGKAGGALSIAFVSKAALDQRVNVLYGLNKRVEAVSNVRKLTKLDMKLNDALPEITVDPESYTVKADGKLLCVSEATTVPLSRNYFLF

Usually IC50 stands for the concentration that gives 50% inhibition. On to `Cc1c(Cl)cccc1NC(=S)NC(=O)c1ccccc1` [Compound 4a, N-[[3-chloro-2-methylphenyl]carbamothioyl]benzamide], for which the IC50 against jack bean urease (JBU) [1] amounted to 44.9 ± 85.4 nM.

As to `COc1ccc(C(=O)NC(=S)Nc2cccc(Cl)c2C)cc1` [Compound 4b], on jack bean urease (JBU) [1], the half-inhibitory concentration (IC50) turned out to be 7.9 ± 4.8 nM.

In the case of `Cc1ccc(C(=O)NC(=S)Nc2cccc(Cl)c2C)cc1` [Compound 4d], at jack bean urease (JBU) [1], the IC50 came out at 53.2 ± 99.5 nM. For the same compound, the “DPPH free radical scavenging activity” value in assay [2] is “good activity”.

As for `Cc1c(Cl)cccc1NC(=S)NC(=O)c1ccc([N+](=O)[O-])cc1` [Compound 4e], in assay [2], the “DPPH free radical scavenging activity” value is “good activity”.

Consider `Cc1c(Cl)cccc1NC(=S)NC(=O)c1cccc([N+](=O)[O-])c1` [Compound 4f], for which the concentration for half-maximal inhibition (IC50) at jack bean urease (JBU) [1] stood at 13.6 nM. Further, in assay [2], the “DPPH free radical scavenging activity” value is reported as “good activity”.

`Cc1c(Cl)cccc1NC(=S)NC(=O)c1cc([N+](=O)[O-])cc([N+](=O)[O-])c1` [Compound 4g] displayed an IC50 against jack bean urease (JBU) [1] of 33.5 ± 99.4 nM. In addition, the “DPPH free radical scavenging activity” value in assay [2] is on record as “good activity”.

`Cc1c(Cl)cccc1NC(=S)NC(=O)c1ccc(Cl)cc1` [Compound 4h] had an IC50 against jack bean urease (JBU) [1] of 22.9 nM. Also, the “DPPH free radical scavenging activity” value in assay [2] was “good activity”.

A word on the Ki: it is a measure of affinity in units of concentration, obtained from inhibition or displacement. A higher Ki goes with a looser hold on the target. The compound `Cc1c(Cl)cccc1NC(=S)NC(=O)c1ccccc1Cl` [Compound 4i] returned an IC50 against jack bean urease (JBU) [1] of 1.9 ± 1.1 nM. In addition, the affinity on jack bean urease (JBU) [3] corresponds to a Ki of 0.3 nM. Also, the “Inhibition Type” value at jack bean urease (JBU) [3] (Lineweaver–Burk plot) is on record as “Non-Competitive”. The values for the Vmax on jack bean urease (JBU) [3] (concentration of 4i 0.001 (µM per Figure 3)), at jack bean urease (JBU) [3] (concentration of 4i 0.002 (µM per Figure 3)) and on jack bean urease (JBU) [3] (concentration of 4i 0.004 (µM per Figure 3)) were 0.000387 ΔA/Min, 0.000131 ΔA/Min and 8.495 × 10^−5 ΔA/Min, respectively. Further, the “DPPH free radical scavenging activity” value in assay [2] was “good activity”.

For `NC(N)=S` [Thiourea], the IC50 at jack bean urease (JBU) [1] (jack bean urease, mean ± SEM, read-out: Urease Activity IC50 ± SEM) stood at 4750 ± 54.5 nM.
